Assay results as given in ChEMBL document CHEMBL5046279, “Discovery of a Partial Glucokinase Activator Clinical Candidate: Diethyl ((3-(3-((5-(Azetidine-1-carbonyl)pyrazin-2-yl)oxy)-5-isopropoxybenzamido)-1H-pyrazol-1-yl)methyl)phosphonate (BMS-820132)” (J Med Chem, 2022).
In brackets after ≈: the same amount, converted by molar mass.

What was measured:
[1] = Microsomal stability in human liver microsomes assessed as parent compound remaining at 0.5 uM measured after 10 mins in presence of NADPH; type: ADME, Microsome; settings: read-out: Stability
[2] = molecular target: Voltage-gated inwardly rectifying potassium channel KCNH2 (Homo sapiens, UniProt Q12809); assay: Inhibition of hERG by patch clamp method; type: toxicity
[3] = Aqueous solubility of the compound at pH 6.5 using amorphous form of sample; type: physicochemical; settings: aqueous solution
Hexokinase-4 [4] = molecular target: T1, Hexokinase-4 (Homo sapiens, UniProt P35557); assay: Activation of recombinant full length human liver glucokinase expressed in Escherichia coli incubated for 10 mins by plate reader analysis
T1 sequence (P35557 whole entry): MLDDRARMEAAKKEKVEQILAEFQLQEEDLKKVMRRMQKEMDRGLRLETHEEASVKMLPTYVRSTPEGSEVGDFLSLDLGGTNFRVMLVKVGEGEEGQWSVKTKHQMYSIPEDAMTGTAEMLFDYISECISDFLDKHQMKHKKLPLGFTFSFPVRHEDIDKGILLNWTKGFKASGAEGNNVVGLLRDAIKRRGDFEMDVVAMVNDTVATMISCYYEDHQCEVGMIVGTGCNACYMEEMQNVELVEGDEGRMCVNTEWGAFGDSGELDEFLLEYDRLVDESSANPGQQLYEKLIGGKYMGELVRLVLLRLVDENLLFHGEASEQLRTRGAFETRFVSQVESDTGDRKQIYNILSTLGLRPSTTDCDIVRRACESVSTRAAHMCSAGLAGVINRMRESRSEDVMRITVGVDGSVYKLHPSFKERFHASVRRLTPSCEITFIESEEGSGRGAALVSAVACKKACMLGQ

[5] = Permeability of compound at pH 7.4 by PAMPA assay; type: ADME; settings: read-out: permeability
Hexokinase-4 [6] = molecular target: T1, Hexokinase-4; assay: Activation of recombinant human full length liver glucokinase expressed in Escherichia coli incubated for 10 mins in presence of 2 mM glucose by plate reader analysis
Hexokinase-4 [7] = molecular target: T1, Hexokinase-4; assay: Activation of recombinant human full length liver glucokinase expressed in Escherichia coli incubated for 10 mins in presence of 5 mM glucose by plate reader analysis
hERG (KCNH2) = hERG (KCNH2) (Homo sapiens, UniProt Q12809); assay: Inhibition of hERG at 10 uM by patch clamp method relative to control; type: toxicity
Hexokinase-4 [8] = molecular target: T1, Hexokinase-4; assay: Displacement of fluorescent labeled derivative from recombinant human hepatic glucokinase incubated for 30 mins in presence of 12 mM glucose by fluorescent polarization assay
Hexokinase-4 [9] = molecular target: T2, Hexokinase-4 (Mus musculus, UniProt P52792); assay: Activation of recombinant mouse full length liver glucokinase expressed in Escherichia coli incubated for 10 mins in presence of 12 mM glucose by plate reader analysis
T2 sequence (P52792 whole entry): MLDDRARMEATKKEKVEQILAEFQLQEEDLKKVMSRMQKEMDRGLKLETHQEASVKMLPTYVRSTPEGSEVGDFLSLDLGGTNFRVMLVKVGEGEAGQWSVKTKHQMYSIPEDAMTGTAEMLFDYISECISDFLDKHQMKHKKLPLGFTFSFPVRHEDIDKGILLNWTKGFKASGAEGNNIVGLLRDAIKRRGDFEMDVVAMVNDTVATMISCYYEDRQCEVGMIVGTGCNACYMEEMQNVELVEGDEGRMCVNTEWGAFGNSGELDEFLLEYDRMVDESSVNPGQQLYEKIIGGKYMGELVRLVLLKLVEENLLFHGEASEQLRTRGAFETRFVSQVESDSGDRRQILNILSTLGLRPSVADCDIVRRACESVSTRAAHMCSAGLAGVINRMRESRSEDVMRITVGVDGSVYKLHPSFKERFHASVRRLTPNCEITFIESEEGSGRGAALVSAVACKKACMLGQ

Sequence of Voltage-gated inwardly rectifying potassium channel KCNH2 (Q12809 whole entry): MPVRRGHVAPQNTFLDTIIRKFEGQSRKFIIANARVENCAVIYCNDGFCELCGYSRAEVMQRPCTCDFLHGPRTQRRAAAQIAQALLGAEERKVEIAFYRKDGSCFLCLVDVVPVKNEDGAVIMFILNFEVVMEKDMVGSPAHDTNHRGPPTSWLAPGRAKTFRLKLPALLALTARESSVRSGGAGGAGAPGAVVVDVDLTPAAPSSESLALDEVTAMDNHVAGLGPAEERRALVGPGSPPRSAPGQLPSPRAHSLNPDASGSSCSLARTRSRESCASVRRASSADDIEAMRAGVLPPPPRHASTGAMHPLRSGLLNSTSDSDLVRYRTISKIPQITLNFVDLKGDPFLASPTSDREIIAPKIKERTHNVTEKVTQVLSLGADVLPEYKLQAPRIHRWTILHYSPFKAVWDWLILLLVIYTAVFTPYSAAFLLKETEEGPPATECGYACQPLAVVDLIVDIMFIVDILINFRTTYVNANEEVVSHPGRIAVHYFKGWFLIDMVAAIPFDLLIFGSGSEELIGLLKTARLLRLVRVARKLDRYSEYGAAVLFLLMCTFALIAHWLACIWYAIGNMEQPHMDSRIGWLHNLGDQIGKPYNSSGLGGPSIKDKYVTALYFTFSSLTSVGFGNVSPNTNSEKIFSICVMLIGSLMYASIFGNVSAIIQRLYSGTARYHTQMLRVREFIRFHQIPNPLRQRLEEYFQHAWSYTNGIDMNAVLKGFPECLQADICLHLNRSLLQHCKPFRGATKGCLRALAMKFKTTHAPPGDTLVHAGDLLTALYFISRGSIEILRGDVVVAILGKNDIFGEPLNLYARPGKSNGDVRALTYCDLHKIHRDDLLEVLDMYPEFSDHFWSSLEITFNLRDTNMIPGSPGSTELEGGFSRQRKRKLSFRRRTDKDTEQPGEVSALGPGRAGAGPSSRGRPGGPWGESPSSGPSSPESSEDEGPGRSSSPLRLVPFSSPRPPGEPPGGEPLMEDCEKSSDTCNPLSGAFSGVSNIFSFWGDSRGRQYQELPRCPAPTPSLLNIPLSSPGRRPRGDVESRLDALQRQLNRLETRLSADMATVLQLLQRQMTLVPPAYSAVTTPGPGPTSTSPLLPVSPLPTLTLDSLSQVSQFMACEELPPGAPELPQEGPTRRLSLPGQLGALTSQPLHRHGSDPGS
Sequence of hERG (KCNH2) (Q12809 whole entry): as above

Row | Structure (SMILES) | remaining at 10 min, 0.5 µM [1] [%] | IC50 [2] [nM] | solubility [3] [µg/mL] | EC50 (Hexokinase-4 [4]) [nM] | Papp [5] [×10⁻⁶ cm/s] | EC50 (Hexokinase-4 [6]) [nM] | EC50 (Hexokinase-4 [7]) [nM] | inhibition at 10 µM (hERG (KCNH2)) [%] | IC50 (Hexokinase-4 [8]) [nM] | EC50 (Hexokinase-4 [9]) [nM]
1 | CCOP(=O)(Cn1ccc(NC(=O)c2cc(Oc3ccc(S(C)(=O)=O)cc3)cc(O[C@@H](C)COC)c2)n1)OCC | 11 | > 80000 | 240 (≈ 403 µM) | 75 |  |  |  |  |  | 
2 | CCOP(=O)(Cn1ccc(NC(=O)c2cc(Oc3ccc(S(=O)(=O)N4CCC4)cc3)cc(OC(C)C)c2)n1)OCC | 46 | 33000 | 2 (≈ 3.3 µM) | 67 | 51.6 |  |  |  |  | 
3 | CCO[P@](C)(=O)Cn1ccc(NC(=O)c2cc(Oc3ccc(S(C)(=O)=O)cc3)cc(O[C@@H](C)COC)c2)n1 | 81 | > 80000 | 547 (≈ 967 µM) | 169 |  |  |  |  |  | 
4 | CCOP(=O)(Cn1ccc(NC(=O)c2cc(Oc3ccc(C(=O)N4CCC4)nc3)cc(OC(C)C)c2)n1)OCC | 66 | > 80000 | 39 (≈ 68.2 µM) | 25 |  |  |  |  |  | 
5 | CCOP(=O)(Cn1ccc(NC(=O)c2cc(Oc3ccc(S(=O)(=O)CC)cc3)cc(OC(C)C)c2)n1)OCC | 94 |  |  | 28 | 53.4 |  |  |  |  | 
6 | CCOP(=O)(Cn1ccc(NC(=O)c2cc(Oc3ccc(C(=O)N4CCC4)nn3)cc(OC(C)C)c2)n1)OCC | 99 | > 80000 | 409 (≈ 714 µM) | 1240 |  |  |  |  |  | 
7 | CCOP(=O)(Cn1ccc(NC(=O)c2cc(Oc3cnc(C(N)=O)cn3)cc(OC(C)C)c2)n1)OCC | 100 | > 80000 |  | 656 |  |  |  |  |  | 
8 | CCOP(=O)(Cn1ccc(NC(=O)c2cc(Oc3cnc(C(=O)N(C)C)cn3)cc(OC(C)C)c2)n1)OCC | 99 | > 80000 | 980 (≈ 1750 µM) | 148 |  |  |  |  |  | 
9 | COC[C@H](C)Oc1cc(Oc2ccc(S(C)(=O)=O)cc2)cc(C(=O)Nc2ccn(CP(C)(C)=O)n2)c1 | 96 | > 80000 | 96 (≈ 179 µM) | 679 |  |  |  |  |  | 
10 | CCOP(=O)(Cn1ccc(NC(=O)c2cc(Oc3ccc(S(C)(=O)=O)cc3)cc(OC(CF)CF)c2)n1)OCC | 93 | 44000 | 10 (≈ 16.6 µM) | 76 | 38.2 |  |  |  |  | 
11 | CCOP(=O)(Cn1ccc(NC(=O)c2cc(Oc3cnc(C(=O)NC)cn3)cc(OC(C)C)c2)n1)OCC | 98 | > 80000 |  | 193 |  |  |  |  |  | 
12 | CCOP(=O)(Cn1ccc(NC(=O)c2cc(Oc3ccc(S(C)(=O)=O)cc3)cc(O[C@@H](C)CF)c2)n1)OCC | 78 | > 80000 | 1 (≈ 1.71 µM) | 87 | 56 |  |  |  |  | 
13 | CCOP(=O)(Cn1ncc(NC(=O)c2cc(Oc3ccc(S(C)(=O)=O)cc3)cc(O[C@@H](C)COC)c2)n1)OCC | 33 |  | 5 (≈ 8.38 µM) | 49 |  |  |  |  |  | 
14 | CCOP(=O)(Cn1ccc(NC(=O)c2cc(Oc3ccc(S(C)(=O)=O)nc3)cc(OC(C)C)c2)n1)OCC | 96 | > 80000 |  | 24 | 47.1 |  |  |  |  | 
15 | CCOP(=O)(Cn1ccc(NC(=O)c2cc(Oc3cnc(S(C)(=O)=O)nc3)cc(OC(C)C)c2)n1)OCC | 100 | > 80000 | 471 (≈ 830 µM) | 234 | 31.4 |  |  |  |  | 
16 | CCOP(=O)(Cn1ccc(NC(=O)c2cc(Oc3ccc(S(C)(=O)=O)nn3)cc(OC(C)C)c2)n1)OCC | 100 | > 80000 | 3830 (≈ 6750 µM) | 530 | 25.5 |  |  |  |  | 
17 | CCOP(=O)(Cc1cnc(NC(=O)c2cc(Oc3ccc(S(C)(=O)=O)cc3)cc(O[C@@H](C)COC)c2)cn1)OCC | 54 | > 80000 | 161 (≈ 265 µM) | 164 |  |  |  |  |  | 
18 | CCOP(=O)(Cn1ccc(NC(=O)c2cc(Oc3ccc(C(=O)N4CCC4)cn3)cc(OC(C)C)c2)n1)OCC | 99 | > 80000 | 298 (≈ 521 µM) | 188 |  |  |  |  |  | 
19 | CCOP(=O)(Cn1ccc(NC(=O)c2cc(Oc3cnc(S(C)(=O)=O)cn3)cc(OC(C)C)c2)n1)OCC | 91 | > 80000 |  | 159 | 44.5 |  |  |  |  | 
20 | CCOP(=O)(Cn1ccc(NC(=O)c2cc(Oc3ccc(S(C)(=O)=O)cc3)cc(O[C@@H](C)CO)c2)n1)OCC | 90 | > 80000 | 7 (≈ 12 µM) | 79 | 0.7 |  |  |  |  | 
21 | CCOP(=O)(Cc1csc(NC(=O)c2cc(Oc3ccc(S(C)(=O)=O)cc3)cc(O[C@@H](C)COC)c2)n1)OCC | 4 | 50000 | 16 (≈ 26.1 µM) | 38 |  | 185 | 64 | 60 | 122 | 42
22 | CCOP(=O)(Cn1ccc(NC(=O)c2cc(Oc3ccc(S(=O)(=O)C(C)C)cc3)cc(OC(C)C)c2)n1)OCC | 77 | 30000 | 3 (≈ 5.05 µM) | 32 | 53.6 |  |  |  |  | 
23 | CCOP(=O)(Cn1ccc(NC(=O)c2cc(Oc3ccc(S(C)(=O)=O)cc3)cc(O[C@@H](CC)CO)c2)n1)OCC | 82 | > 80000 |  | 98 | 8.4 |  |  |  |  | 
24 | CCOP(=O)(Cn1ccc(NC(=O)c2cc(Oc3ccc(S(C)(=O)=O)cc3)cc(OC(C)C)c2)n1)OCC | 88 | > 80000 | 1 (≈ 1.77 µM) | 48 | 50.1 |  |  |  |  | 
25 | CCOP(=O)(Cn1ccc(NC(=O)c2cc(Oc3cnc(C(=O)N4CCC4)nc3)cc(OC(C)C)c2)n1)OCC | 99 | > 80000 | 229 (≈ 400 µM) | 61 |  |  |  |  |  | 
